# Like-named read-outs stand apart in the source and are kept apart here.
# Key:
# Experiment in all cases: Ca2+ mobilization, GFP-apoaequorin luminescence in CHO-K1 with Gα-16
# Type in all cases: cell-based
# [1] = target: T1, Platynereis dumerilii α1-adrenergic receptor (Platynereis dumerilii, UniProt A0A1J0F5Z2); conditions: read-out: Norepinephrine
# T1 construct: full-length in pcDNA3.1(+), expressed in CHO-K1 with Gα-16 and GFP-apoaequorin
# T1 sequence (A0A1J0F5Z2 1-651): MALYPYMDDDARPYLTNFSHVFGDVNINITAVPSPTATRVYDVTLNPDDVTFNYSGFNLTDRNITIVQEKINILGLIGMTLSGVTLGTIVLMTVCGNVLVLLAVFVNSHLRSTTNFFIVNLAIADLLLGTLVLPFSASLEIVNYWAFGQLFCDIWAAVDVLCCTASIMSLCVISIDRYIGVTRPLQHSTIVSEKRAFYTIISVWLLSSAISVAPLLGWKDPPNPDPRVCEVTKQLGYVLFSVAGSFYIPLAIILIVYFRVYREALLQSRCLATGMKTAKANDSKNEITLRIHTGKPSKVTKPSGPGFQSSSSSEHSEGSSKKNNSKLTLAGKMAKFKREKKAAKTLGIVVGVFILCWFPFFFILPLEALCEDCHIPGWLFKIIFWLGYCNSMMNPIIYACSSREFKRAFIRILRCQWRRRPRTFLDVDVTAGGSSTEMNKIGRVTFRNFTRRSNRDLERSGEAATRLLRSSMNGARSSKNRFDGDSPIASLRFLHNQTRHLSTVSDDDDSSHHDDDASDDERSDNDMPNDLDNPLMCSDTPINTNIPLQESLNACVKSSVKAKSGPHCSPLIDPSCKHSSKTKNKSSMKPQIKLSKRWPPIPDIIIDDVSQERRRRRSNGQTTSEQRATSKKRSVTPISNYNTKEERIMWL
# Excerpt: Ca2+ mobilization, GFP-apoaequorin luminescence in CHO-K1 with Gα-16 on Platynereis dumerilii α1-adrenergic receptor
# [2] = target: T2, Priapulus caudatus α1-adrenergic (Priapulus caudatus, UniProt A0ABM1DSS1); conditions: read-out: Norepinephrine
# T2 construct: gene LOC106805782; full-length in pcDNA3.1(+), expressed in CHO-K1 with Gα-16 and GFP-apoaequorin
# T2 sequence (A0ABM1DSS1 1-550): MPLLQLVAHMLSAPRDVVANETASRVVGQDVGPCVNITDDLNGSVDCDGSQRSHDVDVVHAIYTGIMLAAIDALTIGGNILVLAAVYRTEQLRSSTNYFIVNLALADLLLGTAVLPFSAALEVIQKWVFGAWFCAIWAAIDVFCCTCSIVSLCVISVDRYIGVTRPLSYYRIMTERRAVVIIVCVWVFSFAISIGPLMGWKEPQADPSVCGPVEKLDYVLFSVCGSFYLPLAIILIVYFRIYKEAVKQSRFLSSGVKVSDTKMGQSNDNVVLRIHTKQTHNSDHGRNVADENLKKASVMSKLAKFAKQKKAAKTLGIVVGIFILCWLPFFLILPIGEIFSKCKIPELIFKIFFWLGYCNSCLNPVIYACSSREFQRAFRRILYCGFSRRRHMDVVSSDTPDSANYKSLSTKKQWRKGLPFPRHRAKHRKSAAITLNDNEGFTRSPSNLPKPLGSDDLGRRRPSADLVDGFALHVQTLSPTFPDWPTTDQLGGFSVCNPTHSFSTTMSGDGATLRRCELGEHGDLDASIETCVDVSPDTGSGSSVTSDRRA
# Excerpt: Ca2+ mobilization, GFP-apoaequorin luminescence in CHO-K1 with Gα-16 on Priapulus caudatus α1-adrenergic
# [3] = target: T3, P. dumerilii α2-adrenergic receptor (Platynereis dumerilii, UniProt A0A1J0F5X6)
# T3 construct: full-length in pcDNA3.1(+), expressed in CHO-K1 with Gα-16 and GFP-apoaequorin
# T3 sequence (A0A1J0F5X6 1-619): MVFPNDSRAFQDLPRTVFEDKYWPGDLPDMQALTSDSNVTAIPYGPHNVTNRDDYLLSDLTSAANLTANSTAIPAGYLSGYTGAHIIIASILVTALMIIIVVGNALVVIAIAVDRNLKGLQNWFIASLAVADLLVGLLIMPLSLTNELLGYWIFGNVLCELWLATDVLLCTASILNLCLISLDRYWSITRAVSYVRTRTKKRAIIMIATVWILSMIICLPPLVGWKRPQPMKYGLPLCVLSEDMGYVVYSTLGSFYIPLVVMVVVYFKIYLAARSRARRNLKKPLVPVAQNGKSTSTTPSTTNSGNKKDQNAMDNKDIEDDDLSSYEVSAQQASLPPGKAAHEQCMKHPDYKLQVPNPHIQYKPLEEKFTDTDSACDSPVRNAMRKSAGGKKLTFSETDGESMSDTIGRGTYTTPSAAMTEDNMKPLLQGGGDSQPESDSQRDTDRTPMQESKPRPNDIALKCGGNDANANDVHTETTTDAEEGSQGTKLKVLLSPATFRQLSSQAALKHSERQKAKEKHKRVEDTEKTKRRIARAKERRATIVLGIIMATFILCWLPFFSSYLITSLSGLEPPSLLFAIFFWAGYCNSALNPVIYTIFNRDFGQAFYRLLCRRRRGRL
# Excerpt: Ca2+ mobilization, GFP-apoaequorin luminescence in CHO-K1 with Gα-16 on P. dumerilii α2-adrenergic receptor
# [4] = target: T4, S. kowalevskii α1-adrenergic (Saccoglossus kowalevskii, UniProt A0A0U2M149); conditions: read-out: Norepinephrine
# T4 construct: full-length in pcDNA3.1(+), expressed in CHO-K1 with Gα-16 and GFP-apoaequorin
# T4 sequence (A0A0U2M149 1-774): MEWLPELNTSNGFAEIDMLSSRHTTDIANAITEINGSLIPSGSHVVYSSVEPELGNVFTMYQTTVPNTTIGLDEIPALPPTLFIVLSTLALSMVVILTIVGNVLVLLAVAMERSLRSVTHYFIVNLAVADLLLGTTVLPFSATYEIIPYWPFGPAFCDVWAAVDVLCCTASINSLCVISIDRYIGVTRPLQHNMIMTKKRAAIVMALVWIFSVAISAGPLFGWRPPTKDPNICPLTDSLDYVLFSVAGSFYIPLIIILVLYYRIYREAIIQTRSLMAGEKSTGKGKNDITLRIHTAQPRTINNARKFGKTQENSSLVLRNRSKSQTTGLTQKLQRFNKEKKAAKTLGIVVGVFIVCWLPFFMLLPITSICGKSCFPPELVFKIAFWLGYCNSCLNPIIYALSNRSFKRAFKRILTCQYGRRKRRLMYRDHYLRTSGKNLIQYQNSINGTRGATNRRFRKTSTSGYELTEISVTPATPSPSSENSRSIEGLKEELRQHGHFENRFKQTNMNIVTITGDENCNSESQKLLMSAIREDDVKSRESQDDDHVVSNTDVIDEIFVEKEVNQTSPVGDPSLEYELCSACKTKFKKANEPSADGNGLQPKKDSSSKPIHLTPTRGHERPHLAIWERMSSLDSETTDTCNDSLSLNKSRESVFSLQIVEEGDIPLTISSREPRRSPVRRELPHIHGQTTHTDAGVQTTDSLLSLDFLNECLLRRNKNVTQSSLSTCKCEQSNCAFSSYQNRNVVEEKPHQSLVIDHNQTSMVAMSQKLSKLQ
# Excerpt: Ca2+ mobilization, GFP-apoaequorin luminescence in CHO-K1 with Gα-16 on S. kowalevskii α1-adrenergic
# [5] = target: T5, P. caudatus α2-adrenergic (Priapulus caudatus, UniProt A0ABM1F9E8)
# T5 construct: gene LOC106820961; full-length in pcDNA3.1(+), expressed in CHO-K1 with Gα-16 and GFP-apoaequorin
# T5 sequence (A0ABM1F9E8 1-470): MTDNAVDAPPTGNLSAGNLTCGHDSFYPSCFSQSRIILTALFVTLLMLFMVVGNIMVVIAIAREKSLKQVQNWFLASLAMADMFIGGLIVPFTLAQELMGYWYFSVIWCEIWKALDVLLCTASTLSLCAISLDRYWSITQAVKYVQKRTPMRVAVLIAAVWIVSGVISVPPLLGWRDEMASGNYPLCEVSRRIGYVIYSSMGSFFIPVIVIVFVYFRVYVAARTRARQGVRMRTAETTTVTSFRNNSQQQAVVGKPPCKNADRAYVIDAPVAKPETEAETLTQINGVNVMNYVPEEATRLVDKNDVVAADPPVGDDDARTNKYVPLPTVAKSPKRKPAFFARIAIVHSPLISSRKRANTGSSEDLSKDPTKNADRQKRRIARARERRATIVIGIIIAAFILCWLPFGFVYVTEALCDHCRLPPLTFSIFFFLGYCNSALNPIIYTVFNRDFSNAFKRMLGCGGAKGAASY
# Excerpt: Ca2+ mobilization, GFP-apoaequorin luminescence in CHO-K1 with Gα-16 on P. caudatus α2-adrenergic
# [6] = target: T6, S. kowalevskii α2-adrenergic (Saccoglossus kowalevskii, UniProt A0ABM0GQ86); conditions: read-out: Epinephrine
# T6 construct: gene LOC100373264; full-length in pcDNA3.1(+), expressed in CHO-K1 with Gα-16 and GFP-apoaequorin
# T6 sequence (A0ABM0GQ86 1-464): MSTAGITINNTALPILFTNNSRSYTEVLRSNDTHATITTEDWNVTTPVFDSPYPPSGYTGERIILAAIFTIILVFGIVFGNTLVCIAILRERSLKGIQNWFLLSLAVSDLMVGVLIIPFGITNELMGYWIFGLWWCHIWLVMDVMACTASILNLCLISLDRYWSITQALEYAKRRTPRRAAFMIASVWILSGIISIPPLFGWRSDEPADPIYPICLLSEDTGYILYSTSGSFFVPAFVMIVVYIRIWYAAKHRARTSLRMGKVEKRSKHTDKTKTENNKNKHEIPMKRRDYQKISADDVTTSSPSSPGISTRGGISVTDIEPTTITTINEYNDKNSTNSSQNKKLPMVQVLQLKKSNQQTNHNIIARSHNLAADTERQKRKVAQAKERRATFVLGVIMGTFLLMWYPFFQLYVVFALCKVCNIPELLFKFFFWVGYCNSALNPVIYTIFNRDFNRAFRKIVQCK
# Excerpt: Ca2+ mobilization, GFP-apoaequorin luminescence in CHO-K1 with Gα-16 on S. kowalevskii α2-adrenergic
Compound,EC50 [1] [nM],EC50 [2] [nM],EC50 ([3]; read-out: Norepinephrine) [nM],EC50 [4] [nM],EC50 ([5]; read-out: Norepinephrine) [nM],EC50 ([3]; read-out: Epinephrine) [nM],EC50 [6] [nM],EC50 ([5]; read-out: Epinephrine) [nM]
NC[C@H](O)c1ccc(O)c(O)c1 [norepinephrine],210,7.5,8.2,17,470,–,–,–
CNC[C@H](O)c1ccc(O)c(O)c1 [epinephrine],–,–,–,–,–,11,2.3,450

# — article PMC5282848, “Ancient coexistence of norepinephrine, tyramine, and octopamine signaling in bilaterians” (BMC Biology, 2017)
